Measured values: patent US6193967A, “Bispecific reagents for redirected targeting of human lipoproteins” (priority 1997, dated 2001)

Test system: monocytes
Assay: Uptake of bispecific LDL*-IC by monocytes (flow cytometry of cell-associated fluorescence)
Assay type: cell-based, human
Conditions: monocytes at 37° C., bispecific LDL*-IC (anti-FcγRII×anti-LDL plus BODIPY-LDL); antioxidant concentration not given
Experimental: All experiments were done under sterile conditions. For each experiment, bispecific LDL immune complexes (bispecific LDL*-IC) were freshly prepared by combining 4 μg/ml of LDL* with heteroantibodies in eppendorf tubes in monocyte culture medium (without serum or unlabeled LDL unless otherwise indicated), and incubating for one hour at room temperature, prior to adding cells in RPMI 1640 plus 10% FCS. That concentration of LDL* was chosen because it gave a satisfactory signal to noise ratio. In all experiments, a control consisting of LDL* alone was set up by substituting medium for heteroantibody. The final volume of bispecific complexes prior to addition of cells was […]; […] of cells at 1×10^7 /ml were added for a final volume of […]. The tubes were then mixed by gentle pipetting, and incubated at 4° C. or 37° C. as indicated. Final mAb or heteroantibody concentrations are shown in each figure; the final concentration of LDL* in all preparations was 1.33 μg/ml unless otherwise indicated. […]
In all experiments, cells were removed after various times of incubation and washed twice with one ml of PBS at room temperature. […] For cytofluorogaphic analysis, samples were analyzed for green fluorescence on a FACScan (Becton-Dickinson). The excitation wavelength was 488 nm and emission at 515 nm was analyzed. […]

With Cc1cc(C(C)(C)C)c(O)c(C(C)(C)C)c1 [butylated hydroxytoluene] as the molecule, how does the “effect on the response to bispecific LDL*-IC (uptake by monocytes)” value read?
The value was “had no effect”.
